In patent US20130189764A1, “SELECTIVE GROWTH MEDIA” (Oxide Limited, priority 2000, published 2013):
Values after ≈ are worked out from the molar mass of the structure shown.

Experiments:
E. coli strains = assay: inhibition of E. coli strains on DMSal agar for selective growth of Salmonella (Example 16); assay type: cell-based, Escherichia coli; conditions: added to DMSal, selective growth of Salmonella strains
Procedure: (§1) The experiments were conducted as follows: nutrient agar medium was autoclaved and, on cooling (but prior to setting) filter-sterilised alaphosphin or AEP were incorporated at final concentrations of 1 mM, 2 mM, 5 mM and 10 mM, and the medium used to pour plates. Control plates were prepared using nutrient agar without alaphosphin or AEP. A single colony of the organism under test was inoculated in 10 ml of nutrient broth and incubated (without agitation) at 37° C. for 4 hours.
(§2) Trp-AEP was compared to alaphosphin (Ala-AEP) for selective growth of Salmonella strains on DMSal agar.

Citrobacter freundii 370 = assay: MIC / growth in DMSal (Example 16); assay type: cell-based; conditions: Citrobacter freundii 370, DMSal
Procedure: as §1, §2

Serratia marcescens 217 = assay: MIC / growth in DMSal (Example 16); assay type: cell-based; conditions: Serratia marcescens 217, DMSal
Procedure: as §1, §2

[1] = system: Klebsiella pneumoniae 758; assay: MIC / growth in DMSal (Example 16); assay type: cell-based; conditions: Klebsiella pneumoniae 758, DMSal
Procedure: as §1, §2

Salmonella arizonae 1200 = assay: MIC / growth in DMSal (Example 16); assay type: cell-based; conditions: Salmonella arizonae 1200, DMSal
Procedure: as §1, §2

Escherichia coli 122 = assay: MIC / growth in DMSal (Example 16); assay type: cell-based; conditions: Escherichia coli 122, DMSal
Procedure: as §1, §2

Salmonella virchow 703 = assay: MIC / growth in DMSal (Example 16); assay type: cell-based; conditions: Salmonella virchow 703, DMSal
Procedure: as §1, §2

[2] = system: Salmonella enteriditis 723; assay: MIC / growth in DMSal (Example 16); assay type: cell-based; conditions: Salmonella enteriditis 723, DMSal
Procedure: as §1, §2

[3] = system: Klebsiella pneumoniae 411; assay: MIC / growth in DMSal (Example 16); assay type: cell-based; conditions: Klebsiella pneumoniae 411, DMSal
Procedure: as §1, §2

[4] = system: Salmonella typhimurium 722; assay: MIC / growth in DMSal (Example 16); assay type: cell-based; conditions: Salmonella typhimurium 722, DMSal
Procedure: as §1, §2

Escherichia coli 481 = assay: MIC / growth in DMSal (Example 16); assay type: cell-based; conditions: Escherichia coli 481, DMSal
Procedure: as §1, §2

Klebsiella aerogenes 323 = assay: MIC / growth in DMSal (Example 16); assay type: cell-based; conditions: Klebsiella aerogenes 323, DMSal
Procedure: as §1, §2

Escherichia coli 199 = assay: MIC / growth in DMSal (Example 16); assay type: cell-based; conditions: Escherichia coli 199, DMSal
Procedure: as §1, §2

[5] = system: Cronobacterr sakazakii 1888; assay: MIC / growth in DMSal (Example 16); assay type: cell-based, Cronobacter sakazakii; conditions: Cronobacterr sakazakii 1888, DMSal
Procedure: as §1, §2

Streptococcus pneumonaie = assay: MIC on DMSal agar (Example 15); assay type: cell-based; conditions: 5 strains
Haemophilus influenzae = assay: MIC on DMSal agar (Example 15); assay type: cell-based; conditions: 5 strains
Salmonella = conditions: 16 strains, DMSal agar
Procedure: as §1

Yersinia enterocolitica = assay: MIC on DMSal agar (Example 15); assay type: cell-based; conditions: 2 strains
Klebsiella aerogenes = assay: MIC on DMSal agar (Example 15); assay type: cell-based; conditions: 1 strain
Procedure: (§3) The experiments were conducted as follows: […], on cooling (but prior to setting) filter-sterilised alaphosphin or AEP were incorporated at final concentrations of 1 mM, 2 mM, 5 mM and 10 mM, and the medium used to pour plates. Control plates were prepared using nutrient agar without alaphosphin or AEP. A single colony of the organism under test was inoculated in 10 ml of nutrient broth and incubated (without agitation) at 37° C. for 4 hours.

Group D Streptococcus = assay: MIC on DMSal agar (Example 15); assay type: cell-based; conditions: 2 strains
Procedure: as §3

Proteus mirabilis = assay: MIC on DMSal agar (Example 15); assay type: cell-based; conditions: 1 strain
Procedure: as §3

[6] = system: Staphylococcus haemolyticus; assay: MIC on DMSal agar (Example 15); assay type: cell-based; conditions: 1 strain
Procedure: as §3

Enterobacter aerogenes = assay: MIC on DMSal agar (Example 15); assay type: cell-based; conditions: 1 strain
Procedure: as §3

[7] = system: Staphylococcus saprophyticus; assay: MIC on DMSal agar (Example 15); assay type: cell-based; conditions: 1 strain
Procedure: as §3

Proteus vulgaris = assay: MIC on DMSal agar (Example 15); assay type: cell-based; conditions: 1 strain
Procedure: as §3

Klebsiella pneumoniae = assay: MIC on DMSal agar (Example 15); assay type: cell-based; conditions: 2 strains
Procedure: as §3

Listeria innocua = assay: MIC on DMSal agar (Example 15); assay type: cell-based; conditions: 1 strain
Procedure: as §3

Aeromonas hydrophilia = assay: MIC on DMSal agar (Example 15); assay type: cell-based; conditions: 1 strain
Procedure: as §3

Escherichia hermanii = assay: MIC on DMSal agar (Example 15); assay type: cell-based; conditions: 1 strain
Procedure: as §3

Campylobacter jejuni = assay: MIC on DMSal agar (Example 15); assay type: cell-based; conditions: 4 strains
Procedure: as §3

Streptococcus agalactiae = assay: MIC on DMSal agar (Example 15); assay type: cell-based; conditions: 5 strains
Procedure: as §3

Campylobacter coli = assay: MIC on DMSal agar (Example 15); assay type: cell-based; conditions: 4 strains
Procedure: as §3

Cronobacter sakazakii = assay: MIC on DMSal agar (Example 15); assay type: cell-based; conditions: 1 strain
Procedure: as §3

Acinetobacter baumanii = assay: MIC on DMSal agar (Example 15); assay type: cell-based; conditions: 1 strain
Procedure: as §3

Hafnia alvei = assay: MIC on DMSal agar (Example 15); assay type: cell-based; conditions: 1 strain
Procedure: as §3

Citrobacter freundii = assay: MIC on DMSal agar (Example 15); assay type: cell-based; conditions: 4 strains
Procedure: as §3

[8] = system: Staphylococcus epidermidis; assay: MIC on DMSal agar (Example 15); assay type: cell-based; conditions: 3 strains
Procedure: as §3

Shigella = assay: MIC on DMSal agar (Example 15); assay type: cell-based; conditions: 3 strains
Procedure: as §3

Streptoccocus viridans = assay: MIC on DMSal agar (Example 15); assay type: cell-based; conditions: 1 strain
Procedure: as §3

Listeria ivanovii = assay: MIC on DMSal agar (Example 15); assay type: cell-based; conditions: 1 strain
Procedure: as §3

Enterococcus faecium = assay: MIC on DMSal agar (Example 15); assay type: cell-based; conditions: 1 strain
Procedure: as §3

Escherichia coli = assay: MIC on DMSal agar (Example 15); assay type: cell-based; conditions: 7 strains
Procedure: as §3

Group F Streptococcus = assay: MIC on DMSal agar (Example 15); assay type: cell-based; conditions: 2 strains
Procedure: as §3

Staphylococcus aureus = assay: MIC on DMSal agar (Example 15); assay type: cell-based; conditions: 14 strains
Procedure: as §3

Group A Streptococcus = assay: MIC on DMSal agar (Example 15); assay type: cell-based; conditions: 7 strains
Procedure: as §3

Serratia marcescans = assay: MIC on DMSal agar (Example 15); assay type: cell-based; conditions: 1 strain
Procedure: as §3

Enterobacter cloacae = assay: MIC on DMSal agar (Example 15); assay type: cell-based; conditions: 2 strains
Procedure: as §3

Burkholderia cepacia = assay: MIC on DMSal agar (Example 15); assay type: cell-based; conditions: 1 strain

## CC(NC(=O)C(N)Cc1c[nH]c2ccccc12)P(=O)(O)O (stereo not shown) [Trp-AEP, tryptophan-AEP]
E. coli strains
  concentration producing equivalent results to Ala-AEP at 1.5 μg/ml: 0.25 µg/mL
Citrobacter freundii 370
  MIC of Trp-AEP: 2 µg/mL
Serratia marcescens 217
  MIC of Trp-AEP: 3 µg/mL
[1]
  MIC of Trp-AEP: 0.064 µg/mL
Salmonella arizonae 1200
  MIC of Trp-AEP: 2 µg/mL
Escherichia coli 122
  MIC of Trp-AEP: 0.25 µg/mL
Salmonella virchow 703
  MIC of Trp-AEP: 3 µg/mL
[2]
  MIC of Trp-AEP: 3 µg/mL
[3]
  MIC of Trp-AEP: 2 µg/mL
[4]
  MIC of Trp-AEP: 3 µg/mL
Escherichia coli 481
  MIC of Trp-AEP: 0.064 µg/mL
Klebsiella aerogenes 323
  MIC of Trp-AEP: 3 µg/mL
Escherichia coli 199
  MIC of Trp-AEP: 0.25 µg/mL
[5]
  MIC of Trp-AEP: 0.125 µg/mL
Streptococcus pneumonaie
  MIC: >256 µg/mL
Haemophilus influenzae
  MIC: >128 µg/mL
Salmonella
  MIC: 2 to 16 µg/mL
Yersinia enterocolitica
  MIC: 4 to 8 µg/mL
Klebsiella aerogenes
  MIC: 8 µg/mL (≈ 25.7 µM)
Group D Streptococcus
  MIC: 16 µg/mL (≈ 51.4 µM)
Proteus mirabilis
  MIC: >128 µg/mL
[6]
  MIC: 2 µg/mL (≈ 6.43 µM)
Enterobacter aerogenes
  MIC: 1 µg/mL (≈ 3.21 µM)
[7]
  MIC: 64 µg/mL (≈ 206 µM)
Proteus vulgaris
  MIC: >128 µg/mL
Klebsiella pneumoniae
  MIC: 2 to 4 µg/mL
Listeria innocua
  MIC: 32 µg/mL (≈ 103 µM)
Aeromonas hydrophilia
  MIC: 128 µg/mL (≈ 411 µM)
Escherichia hermanii
  MIC: 0.5 µg/mL (≈ 1.61 µM)
Campylobacter jejuni
  MIC: >128 µg/mL
Streptococcus agalactiae
  MIC: 128 µg/mL (≈ 411 µM)
Campylobacter coli
  MIC: >128 µg/mL
Cronobacter sakazakii
  MIC: approximately 1 μg/ml
Cronobacter sakazakii; listed as tryptophan-AEP
  MIC: 1 µg/mL (≈ 3.21 µM)
Acinetobacter baumanii
  MIC: >256 µg/mL
Hafnia alvei
  MIC: approximately 1 μg/ml
Hafnia alvei; listed as tryptophan-AEP
  MIC: 1 µg/mL (≈ 3.21 µM)
Citrobacter freundii
  MIC: approximately 1 μg/ml
Citrobacter freundii; listed as tryptophan-AEP
  MIC: 1 to 4 µg/mL
[8]
  MIC: 4 to 16 µg/mL
Shigella
  MIC: ≤ 0.5 µg/mL
Streptoccocus viridans
  MIC: >256 µg/mL
Listeria ivanovii
  MIC: >128 µg/mL
Enterococcus faecium
  MIC: >256 µg/mL
Escherichia coli
  MIC: ≤ 0.5 µg/mL
Escherichia coli; listed as tryptophan-AEP
  MIC: 0.25 to 0.5 µg/mL
Group F Streptococcus
  MIC: >256 µg/mL
Staphylococcus aureus
  MIC: 0.5 to 16 µg/mL
Group A Streptococcus
  MIC: >256 µg/mL
Serratia marcescans
  MIC: 2 µg/mL (≈ 6.43 µM)
Enterobacter cloacae
  MIC: 4 µg/mL (≈ 12.9 µM)
Burkholderia cepacia
  MIC: >256 µg/mL
